Measured values taken from ChEMBL document CHEMBL3120075 (J Med Chem, 2014).
pEC50: −log10 of the molar value.

Columns and labels:
[1] = Metabolic stability in Sprague-Dawley rat liver microsomes assessed as hepatic extraction at 3 uM after 60 mins by LC/MS/MS analysis; type: ADME; conditions: read-out: ERH
[2] = AUClast in fasted healthy human at 60 mg/kg, po; type: ADME, organism-based; set-up: dose 60 mg/kg, route oral, time 0 - last; conditions: plasma
[3] = Ratio of EC50 for HCV genotype 1a H77 infected in human HuH7 cells in presence of human serum to plasma concentration in fasted healthy human at 100 mg, po at 24 hrs
[4] = Plasma concentration in fasted healthy human at 3 mg/kg, po at 24 hrs; type: ADME, organism-based; set-up: dose 3 mg/kg, route oral
[5] = AUC (infinity) in fasted healthy human at 30 mg/kg, po; type: ADME, organism-based; set-up: time infinity, dose 30 mg/kg, route oral; conditions: plasma
Hepatitis C virus [6] = experiment: Antiviral activity against HCV genotype 1b Con1 infected in human HuH7 cells assessed as inhibition of viral RNA replication after 3 days by renilla luciferase reporter gene assay; type: functional, organism-based, Hepacivirus hominis; conditions: isolate Con1, Huh-7, 72 h
[7] = Half life in fasted healthy human at 3 mg/kg, po; type: ADME, organism-based; set-up: dose 3 mg/kg, route oral; conditions: in vivo
[8] = AUC (infinity) in fasted healthy human at 60 mg/kg, po; type: ADME, organism-based; set-up: time infinity, dose 60 mg/kg, route oral; conditions: plasma
Hepatitis C virus [9] = experiment: Ratio of EC50 for HCV genotype 1b Con1 infected in human HuH7 cells in presence of 10% BSA to EC50 for HCV genotype 1b Con1 infected in human HuH7 cells; type: functional, Hepacivirus hominis, isolate Con1, Huh-7
[10] = Cmax in fasted healthy human at 30 mg/kg, po; type: ADME, organism-based; set-up: dose 30 mg/kg, route oral; conditions: in vivo
Hepatitis C virus [11] = experiment: Antiviral activity against HCV genotype 1a H77 infected in human HuH7 cells assessed as inhibition of viral RNA replication after 3 days by renilla luciferase reporter gene assay; type: functional, organism-based, Hepacivirus hominis; conditions: genotype 1a H77, Huh-7, 72 h
Hepatitis C virus [12] = experiment: Antiviral activity against HCV genotype 1b Con1 infected in human HuH7 cells assessed as inhibition of viral RNA replication after 3 days by renilla luciferase reporter gene assay in presence of 10% BSA; type: functional, organism-based, Hepacivirus hominis; conditions: isolate Con1, Huh-7, 72 h
[13] = Plasma concentration in fasted healthy human at 100 mg/kg, po at 24 hrs; type: ADME, organism-based; set-up: dose 100 mg/kg, route oral
[14] = Ratio of EC50 for HCV genotype 1a H77 infected in human HuH7 cells in presence of 10% BSA to plasma concentration in fasted healthy human at 100 mg, po at 24 hrs
[15] = Volume of distribution at steady state in beagle dog at 0.2 mg/kg, iv; type: ADME, organism-based, Canis lupus familiaris; set-up: dose 0.2 mg/kg, route intravenous; conditions: in vivo, read-out: Vdss
[16] = Cmax in fasted healthy human at 10 mg/kg, po; type: ADME, organism-based; set-up: dose 10 mg/kg, route oral; conditions: in vivo
[17] = Cmax in fasted healthy human at 100 mg/kg, po; type: ADME, organism-based; set-up: dose 100 mg/kg, route oral; conditions: in vivo
[18] = Tmax in fasted healthy human at 10 mg/kg, po; type: ADME, organism-based; set-up: dose 10 mg/kg, route oral; conditions: in vivo
[19] = Half life in fasted healthy human at 30 mg/kg, po; type: ADME, organism-based; set-up: dose 30 mg/kg, route oral; conditions: in vivo
[20] = Tmax in fasted healthy human at 3 mg/kg, po; type: ADME, organism-based; set-up: dose 3 mg/kg, route oral; conditions: in vivo
[21] = Half life in Sprague-Dawley rat at 1 mg/kg, iv; type: ADME, organism-based; set-up: dose 1 mg/kg, route intravenous; conditions: in vivo
[22] = Mean residence time in beagle dog at 0.2 mg/kg, iv; type: ADME, organism-based, Canis lupus familiaris; set-up: dose 0.2 mg/kg, route intravenous; conditions: in vivo
[23] = AUClast in fasted healthy human at 30 mg/kg, po; type: ADME, organism-based; set-up: time 0 - last, dose 30 mg/kg, route oral; conditions: plasma
[24] = Half life in cynomolgus monkey at 0.5 mg/kg, iv; type: ADME, organism-based, Macaca fascicularis; set-up: dose 0.5 mg/kg, route intravenous; conditions: in vivo
[25] = Mean residence time in Sprague-Dawley rat at 1 mg/kg, iv; type: ADME, organism-based; set-up: dose 1 mg/kg, route intravenous; conditions: in vivo
[26] = Cmax in fasted healthy human at 3 mg/kg, po; type: ADME, organism-based; set-up: dose 3 mg/kg, route oral; conditions: in vivo
Canis familiaris = species on record: Canis familiaris; experiment: Toxicity in beagle dog assessed as adverse effects by 14 day toxicology study; type: organism-based, Canis lupus familiaris; conditions: in vivo, 336 h
Hepatitis C virus [27] = experiment: Ratio of EC50 for HCV genotype 1b Con1 infected in human HuH7 cells in presence of human serum to EC50 for HCV genotype 1b Con1 infected in human HuH7 cells; type: functional, Hepacivirus hominis, isolate Con1, Huh-7
Hepatitis C virus [28] = experiment: Antiviral activity against HCV genotype 1b Con1 infected in human HuH7 cells assessed as inhibition of viral RNA replication after 3 days by renilla luciferase reporter gene assay in presence of human serum; type: functional, organism-based, Hepacivirus hominis; conditions: isolate Con1, Huh-7, 72 h
[29] = AUClast in fasted healthy human at 10 mg/kg, po; type: ADME, organism-based; set-up: time 0 - last, dose 10 mg/kg, route oral; conditions: plasma
[30] = AUClast in fasted healthy human at 100 mg/kg, po; type: ADME, organism-based; set-up: time 0 - last, dose 100 mg/kg, route oral; conditions: plasma
Hepatitis C virus [31] = experiment: Ratio of EC50 for HCV genotype 1a H77 infected in human HuH7 cells in presence of 10% BSA to EC50 for HCV genotype 1a H77 infected in human HuH7 cells; type: functional, Hepacivirus hominis, Huh-7

In the case of `COC(=O)N[C@H](C(=O)N1CC2(CC2)C[C@H]1c1nc(-c2ccc3c(c2)C(F)(F)c2cc(-c4ccc5[nH]c([C@@H]6[C@H]7CC[C@H](C7)N6C(=O)[C@@H](NC(=O)OC)C(C)C)nc5c4)ccc2-3)c[nH]1)C(C)C`, the hepatic extraction ratio at 1 h, 3 µM [1] was under 0.092, the AUC(0-t) [2] was 4.01 µM·h and the Ratio [3] was 470. The concentration at 24 h [4] was 2.45 nM, the AUC(0-inf) [5] was 2.72 µM·h and the pEC50 (Hepatitis C virus [6]) was 11.40. The half-life [7] was 45.2 h, the AUC(0-inf) [8] was 5.3 µM·h and the “Ratio EC50” value (Hepatitis C virus [9]) was 6.7. It also gave a Cmax [10] of 82.2 nM, a pEC50 (Hepatitis C virus [11]) of 10.51 and a pEC50 (Hepatitis C virus [12]) of 10.57. For the same molecule, the concentration at 24 h [13] was 98.8 nM, the Ratio [14] was 470 and the Vd [15] was 1.19 L/kg. The Cmax [16] was 21.3 nM, the Cmax [17] was 242 nM and the Tmax [18] was 5 h. For the same molecule, the half-life [19] was 37.2 h, the Tmax [20] was 5.25 h and the half-life [21] was 4.67 h. The MRT [22] was 9.2 h, the AUC(0-t) [23] was 2.24 µM·h and the half-life [24] was 10.3 h. For the same molecule, the MRT [25] was 6.19 h, the Cmax [26] was 6.75 nM and the Activity (Canis familiaris) was “Non-toxic”. The “Ratio EC50” value (Hepatitis C virus [27]) was 6.7, the pEC50 (Hepatitis C virus [28]) was 10.57 and the AUC(0-t) [29] was 0.558 µM·h. The AUC(0-t) [30] was 7.05 µM·h and the “Ratio EC50” value (Hepatitis C virus [31]) was 6.7.
